According to patent US5386011A, “Hexapeptide anaphylatoxin-receptor ligands” (priority 1990, dated 1995):
Structures can show the parent of a compound that is named as a salt. Where a SMILES comes first, the peptide text is derived from it. [ ]: non-standard residue; d: D form. The star is where a group is joined. Phe(4-I) = N[C@@H](Cc1ccc(I)cc1)C(=O)O; d1Nal = N[C@H](Cc1cccc2ccccc12)C(=O)O; NMeF = CN[C@@H](Cc1ccccc1)C(=O)O; Cha = N[C@@H](CC1CCCCC1)C(=O)O; dCha = N[C@H](CC1CCCCC1)C(=O)O; dPhg = N[C@@H](C(=O)O)c1ccccc1; NMe(benzyl) = CN(Cc1ccccc1)*; dNle = CCCC[C@@H](N)C(=O)O; Nle = CCCC[C@H](N)C(=O)O; Tfa = O=C(C(F)(F)F)*

Biological target: T1, C5a Receptor (Homo sapiens, UniProt P21730)
T1 construct: 2.5-25 ug/mL of purified PMNL membrane fragments; endogenous in cells; host or cells: PMNL (polymorphonuclear leukocytes), purified membrane fragments
T1 sequence (P21730 1-350): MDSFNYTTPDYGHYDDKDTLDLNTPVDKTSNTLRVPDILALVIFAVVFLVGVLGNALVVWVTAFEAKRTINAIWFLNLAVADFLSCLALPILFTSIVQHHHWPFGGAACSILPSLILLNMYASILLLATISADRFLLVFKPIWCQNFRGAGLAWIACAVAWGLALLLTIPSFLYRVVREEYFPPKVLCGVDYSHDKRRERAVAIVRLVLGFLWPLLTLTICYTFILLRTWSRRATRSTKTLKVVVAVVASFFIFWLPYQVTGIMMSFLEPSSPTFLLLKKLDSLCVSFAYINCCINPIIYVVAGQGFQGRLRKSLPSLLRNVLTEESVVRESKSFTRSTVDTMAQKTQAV
Experiment: Anaphylatoxin receptor binding Ki determination: inhibition of 125I-C5a binding to purified PMNL membrane fragments
Conditions: 0.03-1 nM 125I-C5a, 2.5-25 ug/mL purified PMNL membrane fragments, filtration; read-out: Ki (In vitro C5a Receptor Binding Potency)
Procedure: Specific inhibition of C5a binding activity of representative compounds of the present invention was measured using 0.03-1 nM ^125 I-C5a with 2.5-25 ug/mL of purified PMNL membrane fragments (Borregaard, N.; Heiple, J. M.; Simons, E. R.; and Clark, R. A. J. Cell. Biol. 1983, 97, 52-61.). Free and membrane-bound ligand were separated by filtration.

SMILES | Ki [nM]
CN[C@@H](Cc1ccccc1)C(=O)N[C@@H](CCCCN)C(=O)N1CCC[C@H]1C(=O)N[C@H](CC1CCCCC1)C(=O)N[C@@H](Cc1ccccc1)C(=O)N[C@@H](C(=O)O)c1ccccc1 [Example 367, (N-Methyl)Phenylalanyl-Lysyl-Prolyl-{(2R)-2-Amino-3-cyclehexylpropanoyl}-Phenylalanyl-{(R)-Phenylglycinyl}-OH] (H-[NMeF]KP[dCha]F[dPhg]-OH) | 1900
CN[C@@H](Cc1ccccc1)C(=O)N[C@@H](CCCCN)C(=O)N1CCC[C@H]1C(=O)N[C@H](CC1CCCCC1)C(=O)N[C@@H](Cc1ccccc1)C(=O)N[C@H](Cc1ccccc1)C(=O)O [Example 212, (N-Methyl)Phenylalanyl-Lysyl-Prolyl-{(2R)-2-Amino-3-cyclohexylpropanoyl}-Phenylalanyl-DPhenylalanyl-OH] (H-[NMeF]KP[dCha]F[dF]-OH) | 110
CN[C@@H](Cc1ccccc1)C(=O)N[C@@H](CCCCN)C(=O)N[C@@H](CCC(=O)O)C(=O)N[C@H](CC1CCCCC1)C(=O)N[C@@H](Cc1ccccc1)C(=O)N[C@H](CCCNC(=N)N)C(=O)O [Example 40, (N-Methyl)Phenylalanyl-Lysyl-Glutamyl-{(2R)-2-Amino-3-cyclohexylpropanoyl}-Phenylalanyl-DArginyl-OH] (H-[NMeF]KE[dCha]F[dR]-OH) | 100
CN[C@@H](Cc1ccccc1)C(=O)N[C@@H](CCCCN)C(=O)N1CCC[C@H]1C(=O)N[C@H](CC1CCCCC1)C(=O)N[C@@H](Cc1ccccc1)C(=O)N[C@H](CCCNC(=N)N)C(=O)O [Example 128, (N-Methyl) Phenylalanyl-Lysyl-Prolyl-{(2R)-2-Amino-3-cyclohexylpropanoyl}-Phenylalanyl-DArginyl-OH] (H-[NMeF]KP[dCha]F[dR]-OH) | 39
C[C@H](NC(=O)[C@H](CCCCN)NC(=O)[C@@H](N)Cc1ccccc1)C(=O)N[C@H](CC1CCCCC1)C(=O)N[C@@H](CC1CCCCC1)C(=O)N[C@H](CCCNC(=N)N)C(=O)O [Example 370, H-Phenylalanyl-Lysyl-Alanyl-{(2R)-2-Amino-3-cyclohexylpropanoyl}-{(2S)-2-Amino-3-cyclohexylpropanoyl}-DArginyl-OH] (H-FKA[dCha][Cha][dR]-OH) | 85
CN[C@@H](Cc1ccccc1)C(=O)N[C@@H](CCCCN)C(=O)N[C@@H](C)C(=O)N[C@H](CC1CCCCC1)C(=O)N[C@@H](CC1CCCCC1)C(=O)N[C@H](CCCNC(=N)N)C(=O)O [Example 152, (N-Methyl)Phenylalanyl-Lysyl-Alanyl-{(2R)-2-Amino-3-cyclohexylpropanoyl}-{(2S)-2-Amino-3-cyclohexylpropanoyl}-DArginyl-OH] (H-[NMeF]KA[dCha][Cha][dR]-OH) | 83
CCCC[C@@H](NC(=O)[C@H](CC(C)C)NC(=O)[C@H](CC1CCCCC1)NC(=O)[C@H](CC1CCCCC1)NC(=O)[C@H](C)NC(=O)[C@H](CCCCN)NC(=O)[C@@H](N)Cc1ccccc1)C(=O)O [Example 390, H-Phenylalanyl-Lysyl-Alanyl-{(2S)-2-Amino-3-cyclohexylpropanoyl}-{(2S)-2-Amino-3-cyclohexylpropanoyl}-Leucyl-DNorleucyl-OH] (H-FKA[Cha][Cha]L[dNle]-OH) | 4000
CCCC[C@H](NC(=O)[C@H](Cc1ccccc1)NC)C(=O)N1CCC[C@H]1C(=O)N[C@H](CC1CCCCC1)C(=O)N[C@@H](CC1CCCCC1)C(=O)N[C@H](CCCNC(=N)N)C(=O)O [Example 187, (N-Methyl)Phenylalanyl-Norleucyl-Prolyl-{(2R)-2-Amino-3-cyclohexylpropanoyl}-{(2S)-2-Amino-3-cyclohexylpropanoyl}-DArginyl-OH] (H-[NMeF][Nle]P[dCha][Cha][dR]-OH) | 300
CC(C)(C)CC(N)C(=O)N[C@@H](CCCCN)C(=O)N1CCC[C@H]1C(=O)N[C@H](CC1CCCCC1)C(=O)N[C@@H](CC1CCCCC1)C(=O)N[C@H](CCCNC(=N)N)C(=O)O (mixture of isomers) [Example 6, H-{(R/S)-t-Butylalanyl}-Lysyl-Prolyl-{(2R)-2-Amino-3-cyclohexylproanoyl}-{(2S)-2-Amino-3-cyclohexylpropanoyl}-DArginyl-OH] | 80
CN[C@@H](Cc1ccccc1)C(=O)N[C@@H](CCCCN)C(=O)N1CCC[C@H]1C(=O)N[C@H](Cc1cccc2ccccc12)C(=O)N[C@@H](Cc1ccccc1)C(=O)N[C@H](CCCNC(=N)N)C(=O)O [Example 224, (N-Methyl)Phenylalanyl-Lysyl-Prolyl-D(1-Naphthylalanyl)-Phenylalanyl-DArginyl-OH] (H-[NMeF]KP[d1Nal]F[dR]-OH) | 12
CC(C)[C@H](NC(=O)[C@H](CCCCN)NC(=O)[C@@H](N)Cc1ccccc1)C(=O)N[C@H](CC1CCCCC1)C(=O)N[C@@H](CC1CCCCC1)C(=O)N[C@H](CCCNC(=N)N)C(=O)O [Example 360, H-Phenylalanyl-Lysyl-Valyl-{(2R)-2-Amino-3-cyclohexylpropanoyl}-{(2S)-2-Amino-3-cyclohexylpropanoyl}-DArginyl-OH] (H-FKV[dCha][Cha][dR]-OH) | 53
CN[C@@H](Cc1ccccc1)C(=O)N[C@@H](CCCCNC(=O)C(F)(F)F)C(=O)N1CCC[C@H]1C(=O)N[C@H](CC1CCCCC1)C(=O)N[C@@H](CC1CCCCC1)C(=O)N[C@H](CCCNC(=N)N)C(=O)O [Example 305, (N-Methyl)Phenylalanyl-Lysyl(N-epsilon-trifluoroacetyl)-Prolyl-{(2R)-2-Amino-3-cyclohexylpropanoyl}-{(2S)-2-Amino-3-cyclohexylpropanoyl}-DArginyl-OH] (H-[NMeF]K(Tfa)P[dCha][Cha][dR]-OH) | 220
CC(C)C[C@H](NC(=O)[C@H](CC1CCCCC1)NC(=O)[C@H](CC1CCCCC1)NC(=O)[C@H](C)NC(=O)[C@H](CCCCN)NC(=O)[C@@H](N)Cc1ccccc1)C(=O)N[C@H](CCCNC(=N)N)C(=O)O [Example 214, H-Phenylalanyl-Lysyl-Alanyl-{(2S)-2-Amino-3-cyclohexylpropanoyl}-{(2S)-2-Amino-3-cyclohexylpropanoyl}-Leucyl-DArg] (H-FKA[Cha][Cha]L[dR]-OH) | 90
CN[C@@H](Cc1ccccc1)C(=O)N[C@@H](CCCCN)C(=O)N1CCC[C@H]1C(=O)N[C@H](CC1CCCCC1)C(=O)N[C@@H](CC1CCCCC1)C(=O)N[C@H](CCCNC(=N)N)C(=O)N(C)Cc1ccccc1 [Example 97, (N-Methyl)Phenylalanyl-Lysyl-Prolyl-{(2R) -2-Amino-3-cyclohexylpropanoyl}-{(2S)-2-Amino-3-cyclohexylpropanoyl}-DArginyl-N-(Methyl)(Benzyl)] (H-[NMeF]KP[dCha][Cha][dR]-{NMe(benzyl)}) | 520
CC(C)C[C@@H](NC(=O)[C@H](CC1CCCCC1)NC(=O)[C@H](CC1CCCCC1)NC(=O)[C@H](C)NC(=O)[C@H](CCCCN)NC(=O)[C@@H](N)Cc1ccccc1)C(=O)N[C@@H](CCCNC(=N)N)C(=O)O [Example 195, H-Phenylalanyl-Lysyl-Alanyl-{(2S)-2-Amino-3-cyclohexylpropanoyl}-{(2S)-2-Amino-3-cyclohexylpropanoyl}-DLeucyl-Arginyl-OH] (H-FKA[Cha][Cha][dL]R-OH) | 1500
CC(=O)N[C@@H](Cc1ccccc1)C(=O)N[C@@H](CCCCN)C(=O)N[C@@H](C)C(=O)N[C@H](CC1CCCCC1)C(=O)N[C@@H](CC1CCCCC1)C(=O)N[C@H](CCCNC(=N)N)C(=O)O [Example 120, N-Acetyl-Phenylalanyl-Lysyl-Alanyl-{(2R)-2-Amino-3-cyclohexylpropanoyl}-{(2S)-2-Amino-3-cyclohexylpropanoyl}-DArginyl-OH] (Ac-FKA[dCha][Cha][dR]-OH) | 110
CC(C)C[C@H](NC(=O)[C@H](CC1CCCCC1)NC(=O)[C@H](CC1CCCCC1)NC(=O)[C@H](CCCCN)NC(=O)[C@@H](N)Cc1ccc(I)cc1)C(=O)N[C@H](C)C(=O)N[C@@H](CCCNC(=N)N)C(=O)O [Example 107, H-(p-Iodo)Phenylalanyl-Lysyl-{(2S)-2-Amino-3-cyclohexylpropanoyl}-{(2S)-2-Amino-3-cyclohexylpropanoyl}-Leucyl-DAlanyl-Arginyl-OH] (H-[Phe(4-I)]K[Cha][Cha]L[dA]R-OH) | 3600
CN[C@@H](Cc1ccccc1)C(=O)N[C@@H](CCCCN)C(=O)N1CCC[C@H]1C(=O)N[C@H](CC1CCCCC1)C(=O)N[C@@H](CC1CCCCC1)C(=O)N[C@H](CCCNC(=N)N)C(=O)O [Example 166, (N-Methyl)Phenylalanyl-Lysyl-Prolyl-{(2R)-2-Amino-3-cyclohexylpropanoyl}-{(2S)-2-Amino-3-cyclohexylpropanoyl}-DArginyl-OH] (H-[NMeF]KP[dCha][Cha][dR]-OH) | 35
N=C(N)NCCC[C@@H](NC(=O)[C@H](CC1CCCCC1)NC(=O)[C@@H](CC1CCCCC1)NC(=O)[C@H](CCCCN)NC(=O)[C@H](CCCCN)NC(=O)[C@@H](N)Cc1ccccc1)C(=O)O [Example 58, H-Phenylalanyl-Lysyl-Lysyl-{(2R)-2-Amino-3-cyclohexylpropanoyl}-{(2S)-2-Amino-3-cyclohexylpropanoyl}-DArginyl-OH] (H-FKK[dCha][Cha][dR]-OH) | 11
